Converted amounts (≈) assume the structure as drawn. “And” between values parts separate entries of the source, which are not always exact repeats. Equal entries are not always repeated. Where two headings read alike, the source gives them in different places.
How the values were obtained:
Type in all cases: cell-based
[1] = test system: Escherichia coli UC 51 (EC); assay: Dipped disk (disk-diffusion) assay, disks loaded with 0.10 ml; set-up: zone of inhibition: dose or concentration left out as unconfirmed
Experimental: The effectiveness of the subject compounds on some bacteria were obtained by performing a dipped disk assay. The antibacterial activity of the compounds is determined by the disk-diffusion method. […] They were then applied to the surface of microorganism-seeded agar assay trays, which contained the bacterial strain Pseudomonas aeruginosa UC 95 )PA), Escherichia coli UC 51 (EC) or Staphylococcus aureus UC 80 (SA). The assay trays were incubated overnight under aerobic condition to allow for the growth of the organisms. Zones of growth inhibition due to the action of the antibiotic were then measured to the nearest millimeter.

Streptococcus faecalis = assay: Minimum inhibitory concentration (MIC) by agar dilution; conditions: Enterococcus faecalis
Method in brief: (§1)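 Compounds were serially diluted into molten unsupplemented Mueller Hinton agar at 47° C and plates were poured. Bacteria grown overnight on MHA at 35° C were brought to 0.5 McFarland turbidity in Trypticase soy broth, diluted 1:20 and spot-inoculated with a Steers replicator.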

Citerobacter freundii = assay: as above
Method in brief: as §1

Serratia marcescens = assay: as above; conditions: 20 h, read-out: MINIMUM INHIBITORY CONCENTRATION
Method in brief: as §1

Escherichia coli = assay: as above; conditions: for MIC: Escherichia coli
Method in brief: as §1

Staphylococcus aureus = assay: as above; conditions: for MIC: Staphylococcus aureus
Method in brief: as §1

[2] = test system: Acinetobacter calcoaceticus; assay: as above; conditions: for MIC: Acinetobacter calcoaceticus
Method in brief: as §1

[3] = test system: Staphylococcus epidermidis; assay: as above; conditions: 20 h
Method in brief: as §1

Klebsiella pneumoniae = assay: as above
Method in brief: as §1

Proteus penneri = assay: as above; conditions: for MIC: Proteus penneri
Method in brief: as §1

Streptococcus pyogenes = assay: as above; conditions: for MIC: Streptococcus pyogenes
Method in brief: as §1

[4] = test system: Pseudomonas aeruginosa UC 95 (PA); assay: Dip disk (disk-diffusion) assay, disks loaded with 0.05 ml; conditions: Pseudomonas aeruginosa, UC95; 0.1 mcg/ml, 0.05 ml per disk; read-out: Growth Inhibition zone, PA
Experimental: (§2) The effectiveness of the subject compounds on bacteria were obtained by performing a dip disk assay. The antibacterial activity of the compounds was determined by the disk-diffusion method. Paper disks (12.7 mm) were loaded with 0.05 ml of drug solution prepared at a concentration of 0.1 mcg/ml; the disks were allowed to air dry. They were then applied to the surface of microorganism-seeded agar assay trays, which contained the bacterial strain Pseudomonas aeruginosa UC 95 (PA), Escherichia coli UC 51 (EC), Klebsiella pneumoniae UC 57 (KP), or Staphylococcus aureus UC 80 (SA). The assay trays were incubated overnight under aerobic condition to allow for the growth of the organisms. Zones of growth inhibition due to the action of the antibiotic were then measured to the nearest millimeter.
(§3) The effectiveness of additional compounds 5-9, (5-7 are Formula IAa compounds and 8 and 9 are Formula IAb compounds) on bacteria were obtained by performing a dip disk assay as described above. The antibacterial activity of the compounds was determined by the disk-diffusion method where the disks were loaded with 0.05 ml of drug solution prepared at a concentration of 1.0 mcg/ml; the disks were allowed to air dry.

[5] = test system: Escherichia coli UC 51 (EC); assay: as above; conditions: Escherichia coli, UC51; 0.1 mcg/ml, 0.05 ml per disk; read-out: Growth Inhibition zone, EC
Experimental: as §2, §3

[6] = test system: Staphylococcus aureus UC 80 (SA); assay: as above; conditions: Staphylococcus aureus, UC80, read-out: Growth Inhibition zone, SA
Experimental: as §2, §3

[7] = 20 h, read-out: MINIMUM INHIBITORY CONCENTRATION

SMILES: O=C(O)c1cn(C2CC2)c2cc(N3CCNCC3)c(F)cc2c1=O [Ciprofloxacin, reference compound]
- Growth Inhibition Zone, EC ([1]; Conc 1 mg/ml, 0.10 ml per disk): 35 mm
- zone of inhibition ([1]; Escherichia coli, UC51, 0.10 ml per disk, read-out: Growth Inhibition Zone, EC): 33 mm
- MIC (Streptococcus faecalis; [7]): 0.5 µg/mL (≈ 1.51 µM)
- MIC (Streptococcus faecalis; UC9217, 20 h, read-out: Minimum Inhibitory Concentration): 0.5 µg/mL (≈ 1.51 µM)
- MIC (Citerobacter freundii; [7]): < 0.008 µg/mL
- MIC (Citerobacter freundii; Citrobacter freundii, UC3507, 20 h, read-out: Minimum Inhibitory Concentration): < 0.008 µg/mL
- MIC (Serratia marcescens): 0.06 µg/mL (≈ 0.181 µM)
- MINIMUM INHIBITORY CONCENTRATION (Escherichia coli; Cult No. 9855, MHA): 0.015 mcg per ml and 0.03 mcg per ml
- MINIMUM INHIBITORY CONCENTRATION (Escherichia coli; Cult No. 9952, MHA): 0.015 mcg per ml and < 0.008 mcg per ml
- MIC (Escherichia coli; 20 h, read-out: MINIMUM INHIBITORY CONCENTRATION, Cult No. 6674, MHA): 0.015 µg/mL (≈ 0.0453 µM)
- MIC (Escherichia coli; 20 h, read-out: MINIMUM INHIBITORY CONCENTRATION, Cult No. 9451, MHA): 0.015 µg/mL (≈ 0.0453 µM)
- MIC (Escherichia coli; 20 h, read-out: MINIMUM INHIBITORY CONCENTRATION, Cult No. 9855, MHA): 0.015 µg/mL (≈ 0.0453 µM)
- MIC (Escherichia coli; 20 h, read-out: MINIMUM INHIBITORY CONCENTRATION, Cult No. 9952, MHA): 0.015 µg/mL (≈ 0.0453 µM)
- MIC (Escherichia coli; UC6674, 20 h, E. coli UC 6674, Table CI, read-out: Minimum Inhibitory Concentration): 0.015 µg/mL (≈ 0.0453 µM)
- MIC (Escherichia coli; UC9451, 20 h, E. coli UC 9451, Table CI, read-out: Minimum Inhibitory Concentration): 0.015 µg/mL (≈ 0.0453 µM)
- MIC (Escherichia coli; UC9855, 20 h, E. coli UC 9855, Table CI, read-out: Minimum Inhibitory Concentration): 0.015 µg/mL (≈ 0.0453 µM)
- MIC (Escherichia coli; UC9952, 20 h, E. coli UC 9952, Table CI, read-out: Minimum Inhibitory Concentration): < 0.008 µg/mL
- MINIMUM INHIBITORY CONCENTRATION (Staphylococcus aureus; Cult No. 6685, MHA): 0.25 mcg per ml and 0.125 mcg per ml
- MINIMUM INHIBITORY CONCENTRATION (Staphylococcus aureus; Cult No. 9213, MHA): 1 mcg per ml and 0.5 mcg per ml
- MINIMUM INHIBITORY CONCENTRATION (Staphylococcus aureus; Cult No. 9218, MHA): 0.5 mcg per ml and 0.25 mcg per ml
- MIC (Staphylococcus aureus; 20 h, read-out: MINIMUM INHIBITORY CONCENTRATION, Cult No. 3665, MHA): 1 µg/mL (≈ 3.02 µM)
- MIC (Staphylococcus aureus; 20 h, read-out: MINIMUM INHIBITORY CONCENTRATION, Cult No. 6685, MHA): 0.25 µg/mL (≈ 0.754 µM)
- MIC (Staphylococcus aureus; 20 h, read-out: MINIMUM INHIBITORY CONCENTRATION, Cult No. 9213, MHA): 1 µg/mL (≈ 3.02 µM)
- MIC (Staphylococcus aureus; 20 h, read-out: MINIMUM INHIBITORY CONCENTRATION, Cult No. 9218, MHA): 0.5 µg/mL (≈ 1.51 µM)
- MIC (Staphylococcus aureus; 20 h, read-out: MINIMUM INHIBITORY CONCENTRATION, Cult No. 9271, MHA): 0.5 µg/mL (≈ 1.51 µM)
- MIC (Staphylococcus aureus; UC6685, 20 h, read-out: Minimum Inhibitory Concentration, S. aureus UC 6685, Table CI): 0.25 µg/mL (≈ 0.754 µM)
- MIC (Staphylococcus aureus; UC9213, 20 h, read-out: Minimum Inhibitory Concentration, S. aureus UC 9213, Table CI): 1 µg/mL (≈ 3.02 µM)
- MIC (Staphylococcus aureus; UC9218, 20 h, read-out: Minimum Inhibitory Concentration, S. aureus UC 9218, Table CI): 0.5 µg/mL (≈ 1.51 µM)
- MIC (Staphylococcus aureus; UC9271, 20 h, read-out: Minimum Inhibitory Concentration, S. aureus UC 9271, Table CI): 0.5 µg/mL (≈ 1.51 µM)
- MIC ([2]; 20 h, read-out: MINIMUM INHIBITORY CONCENTRATION, Cult No. 12170, MHA): 0.25 µg/mL (≈ 0.754 µM)
- MIC ([2]; UC12170, 20 h, read-out: Minimum Inhibitory Concentration, A. calcoaceticus UC 12170, Table CI): 0.25 µg/mL (≈ 0.754 µM)
- MINIMUM INHIBITORY CONCENTRATION ([2]; Cult No. 12170, MHA): 0.25 mcg per ml and 0.125 mcg per ml
- MIC ([3]; read-out: MINIMUM INHIBITORY CONCENTRATION): 0.125 µg/mL (≈ 0.377 µM)
- MIC ([3]; read-out: Minimum Inhibitory Concentration): 0.06 µg/mL (≈ 0.181 µM)
- MIC (Klebsiella pneumoniae; [7]): 0.03 µg/mL (≈ 0.0905 µM)
- MIC (Klebsiella pneumoniae; UC12081, 20 h, read-out: Minimum Inhibitory Concentration): 0.03 µg/mL (≈ 0.0905 µM)
- MINIMUM INHIBITORY CONCENTRATION (Proteus penneri; Cult No. 9679, MHA): 0.03 mcg per ml and 0.015 mcg per ml
- MIC (Proteus penneri; 20 h, read-out: MINIMUM INHIBITORY CONCENTRATION, Cult No. 9679, MHA): 0.015 µg/mL (≈ 0.0453 µM)
- MIC (Proteus penneri; UC9679, 20 h, read-out: Minimum Inhibitory Concentration, P. penneri UC 9679, Table CI): 0.015 µg/mL (≈ 0.0453 µM)
- MINIMUM INHIBITORY CONCENTRATION (Streptococcus pyogenes; Cult No. 152, MHA): 0.25 mcg per ml and 0.125 mcg per ml
- MIC (Streptococcus pyogenes; 20 h, read-out: MINIMUM INHIBITORY CONCENTRATION, Cult No. 152, MHA): 0.25 µg/mL (≈ 0.754 µM)
- MIC (Streptococcus pyogenes; UC152, 20 h, read-out: Minimum Inhibitory Concentration, S. pyogenes UC 152, Table CI): 0.25 µg/mL (≈ 0.754 µM)
- zone of inhibition at 0.1 µg/mL [4]: 38 mm
- zone of inhibition at 0.1 µg/mL [5]: 29 mm
- zone of inhibition at 0.1 µg/mL [6]: 27 mm

Source: patent US5262417A, “Antibacterial quinolone compounds” (The Upjohn Company, priority 1991, dated 1993)
